Test systems include SW-620 colon; HCT-15 colon; UO-31 renal; SNB-19 CNS; SK-MEL-5 melanoma; 786-0 renal; UACC-62 melanoma; OVCAR-5 ovarian; K-562 leukemia.
Common to all, as to assay: inhibition of tumour cell growth, NCI panel, 48 h

Values joined by “and” are separate entries in the source; they are usually repeats but may differ in a detail not shown here. Equal values may be shown once.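 Each compound was tested at five concentrations against cells in 96-well plates for 48 hours. GI50 marks 50% less growth. TGI: concentration producing complete growth inhibition.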

As for `CN[C@H]1CC[C@]23C[C@]24CC[C@]2(C)[C@@H]([C@H](C)N(C)C)CC[C@@]2(C)[C@@H]4CC[C@H]3C1(C)C`, the TGI with SW-620 colon is 32.5 µM; with HCT-15 colon it was 25.8 µM; with UO-31 renal, 24.5 µM; in the experiment with SNB-19 CNS it was 43.3 µM; with SK-MEL-5 melanoma, 29.4 µM; in the experiment on 786-0 renal it was 19.8 µM. Further, the results for the TGI with UACC-62 melanoma and with OVCAR-5 ovarian were 32.1 µM and 60.7 µM, respectively.
As for `CCN(CC)CCOc1ccc(Cc2ccccc2)cc1`, the GI50 in the experiment on SW-620 colon is 17.4 µM; in the experiment on HCT-15 colon it was 15.1 µM; with UO-31 renal, 18.4 µM; with SNB-19 CNS it was 68.7 µM; in the experiment on SK-MEL-5 melanoma, 15.1 µM; in the experiment with 786-0 renal, 27.6 µM. For the same molecule, the GI50 in the experiment with UACC-62 melanoma is 30.8 µM; in the experiment with OVCAR-5 ovarian, 28.5 µM. For the same molecule, the TGI in the experiment on SW-620 colon is 42.4 µM; in the experiment on HCT-15 colon, 53.9 µM; in the experiment on UO-31 renal, above 100 µM; in the experiment with SNB-19 CNS it was above 100 µM; with SK-MEL-5 melanoma, 28.5 µM; in the experiment on 786-0 renal it was above 100 µM. Moreover, the TGI in the experiment with UACC-62 melanoma and in the experiment on OVCAR-5 ovarian was above 100 µM each time.
Consider `Cc1nc(-n2nc(-c3ccccc3)cc2-c2ccccc2)sc1C(=O)/C=C/c1ccc(Cl)cc1`, for which the TGI in the experiment on SW-620 colon was 61.1 µM; in the experiment on HCT-15 colon it was above 100 µM; with UO-31 renal, 21.1 µM; in the experiment on SK-MEL-5 melanoma, 31 µM; with 786-0 renal, 27.4 µM; in the experiment on UACC-62 melanoma, 28.7 µM. Further, the TGI in the experiment with OVCAR-5 ovarian is above 100 µM.
For the molecule `COc1cc(/C=C2\Cc3ccccc3C2=O)cc(OC)c1OC`, the TGI in the experiment with SW-620 colon, in the experiment with HCT-15 colon, in the experiment with UO-31 renal, with SNB-19 CNS, in the experiment with SK-MEL-5 melanoma and in the experiment with K-562 leukemia was above 100 µM throughout. Also, the TGI in the experiment with 786-0 renal, with UACC-62 melanoma and with OVCAR-5 ovarian was above 100 µM each time.
`COc1ccc2c(c1)c(-c1ccc(-c3cn(C)c4ccc(OC)cc34)o1)cn2C`: the GI50 with SW-620 colon is 4.55 µM; with HCT-15 colon, 4.22 µM; with UO-31 renal it was 3.6 µM; in the experiment on SNB-19 CNS, 29.8 µM; in the experiment on SK-MEL-5 melanoma, 10.4 µM; in the experiment on K-562 leukemia it was 2.86 µM. Moreover, the GI50 was above 100 µM in the experiment with 786-0 renal, 3.81 µM in the experiment with UACC-62 melanoma and 2.79 µM with OVCAR-5 ovarian. For the same molecule, the TGI with SW-620 colon is 16.7 µM; in the experiment with HCT-15 colon it was 29.7 µM; in the experiment with UO-31 renal, 15 µM; in the experiment on SNB-19 CNS it was above 100 µM; in the experiment with SK-MEL-5 melanoma it was 22.8 µM; in the experiment with K-562 leukemia it was above 100 µM. Moreover, the TGI in the experiment on 786-0 renal is above 100 µM; in the experiment with UACC-62 melanoma it was 15.9 µM; in the experiment on OVCAR-5 ovarian it was 10.6 µM.
With `CCCCCCC(O)C(O)CCC(O)C1CCC(CCCCC(O)CC2=CC(C)OC2=O)O1` (stereo not given), the GI50 in the experiment on SW-620 colon is 36.5 µM; in the experiment with HCT-15 colon, 19.2 µM; in the experiment on UO-31 renal, 16 µM; with SNB-19 CNS, 14.2 µM; with 786-0 renal, 21.9 µM; with OVCAR-5 ovarian it was 23.7 µM. The TGI in the experiment with SW-620 colon was above 100 µM; in the experiment with HCT-15 colon, 80.4 µM; in the experiment with UO-31 renal it was 7.75 µM and 35.2 µM; in the experiment with SNB-19 CNS, 38.8 µM; in the experiment with SK-MEL-5 melanoma it was 7.07 µM and 13.4 µM; in the experiment with K-562 leukemia, 27.6 µM. Also, the TGI is 52.1 µM with 786-0 renal and 46.2 µM in the experiment on OVCAR-5 ovarian.
Turning to `COc1ccc(/C=C2\CCc3ccccc3C2=O)cc1OC`, the TGI was 82.5 µM in the experiment with SW-620 colon; 45.5 µM in the experiment on HCT-15 colon; above 100 µM in the experiment on UO-31 renal; above 100 µM in the experiment with SNB-19 CNS; 30.9 µM in the experiment on SK-MEL-5 melanoma; above 100 µM in the experiment with K-562 leukemia. In addition, the TGI in the experiment with 786-0 renal is above 100 µM; in the experiment on UACC-62 melanoma, 34.1 µM; in the experiment on OVCAR-5 ovarian, above 100 µM.
`CC(C)c1cc(C(=O)[O-])c(O)c(C(C)C)c1.CC(C)c1cc(C(=O)[O-])c(O)c(C(C)C)c1.CC(C)c1cc(C(=O)[O-])c(O)c(C(C)C)c1.CC(C)c1cc(C(=O)[O-])c(O)c(C(C)C)c1.CC(C)c1cc(C(=O)[O-])c(O)c(C(C)C)c1.CC(C)c1cc(C(=O)[O-])c(O)c(C(C)C)c1.[Cu+2].[Mn+2].[Mn+2]`: the GI50 in the experiment with SW-620 colon is 14.8 µM; in the experiment with HCT-15 colon, 39.3 µM; in the experiment on UO-31 renal it was 16.5 µM; in the experiment with SNB-19 CNS it was 20.8 µM; with SK-MEL-5 melanoma, 17.1 µM; in the experiment on K-562 leukemia, 12.8 µM. The GI50 with 786-0 renal is 20.3 µM; in the experiment on UACC-62 melanoma, 15.3 µM; in the experiment with OVCAR-5 ovarian, 28.2 µM. Moreover, the TGI in the experiment on SW-620 colon was 29.5 µM; with HCT-15 colon, above 100 µM; in the experiment with UO-31 renal it was 32.6 µM; in the experiment with SNB-19 CNS, 47.8 µM; in the experiment with SK-MEL-5 melanoma it was 32.3 µM; with K-562 leukemia, 50.4 µM. Also, the TGI amounted to 46.9 µM in the experiment with 786-0 renal, 34.4 µM with UACC-62 melanoma and 49.3 µM with OVCAR-5 ovarian.
Regarding `COc1c(Cl)[c]([Hg][O]C(C)=O)c(NCC(C)=O)c(OC)[c]1[Hg][O]C(C)=O`, the GI50 in the experiment on SW-620 colon was 19.6 µM; in the experiment on UO-31 renal, 22 µM; in the experiment with SNB-19 CNS, 3.53 µM; with SK-MEL-5 melanoma it was 11.1 µM; in the experiment on K-562 leukemia it was 11.8 µM; in the experiment with 786-0 renal it was 3.44 µM. The GI50 in the experiment with OVCAR-5 ovarian was 38.7 µM. The TGI in the experiment on SW-620 colon is 62.4 µM; in the experiment on UO-31 renal it was 40 µM; in the experiment with SNB-19 CNS, 11.2 µM; in the experiment on SK-MEL-5 melanoma it was 26.1 µM; in the experiment with K-562 leukemia, above 100 µM; in the experiment on 786-0 renal it was 12.9 µM. For the same molecule, the TGI with OVCAR-5 ovarian is 90.9 µM.
`CCC1(N)C(=O)OCc2c1cc1n(c2=O)Cc2cc3ccccc3nc2-1` (stereo not given): the GI50 was 12.9 µM with SW-620 colon; 19.7 µM in the experiment on HCT-15 colon; 4.43 µM in the experiment with UO-31 renal; 7.17 µM with SK-MEL-5 melanoma; 5.36 µM with K-562 leukemia; 3.31 µM in the experiment on 786-0 renal. Further, the GI50 is 3.89 µM in the experiment on UACC-62 melanoma and 30 µM in the experiment with OVCAR-5 ovarian. Besides, the TGI in the experiment on SW-620 colon is above 100 µM; in the experiment on HCT-15 colon, above 100 µM; in the experiment on UO-31 renal, 20.9 µM and 17.4 µM; with SNB-19 CNS it was above 100 µM; in the experiment on SK-MEL-5 melanoma it was 20.4 µM and > 47.8 µM; in the experiment with K-562 leukemia, above 100 µM. Also, the TGI with 786-0 renal was 49.8 µM and > 54.6 µM; in the experiment with UACC-62 melanoma, 20.5 µM and 14.1 µM; in the experiment with OVCAR-5 ovarian it was above 100 µM.
As for `CCOc1ccc(N=Cc2ccc3ccccc3n2)cc1`, the TGI in the experiment with SW-620 colon, with HCT-15 colon, in the experiment on UO-31 renal, in the experiment on SNB-19 CNS, with SK-MEL-5 melanoma and with K-562 leukemia was above 100 µM throughout. In addition, the TGI in the experiment with 786-0 renal, with UACC-62 melanoma and with OVCAR-5 ovarian was above 100 µM throughout.
Take `O=C(Nc1ccc(N2CCNCC2)cn1)c1[nH]ncc1Nc1ncnc2sccc12`: the GI50 was 1.54 µM in the experiment with SW-620 colon; 8.3 µM with HCT-15 colon; 14.4 µM in the experiment with UO-31 renal; 1.71 µM in the experiment on SK-MEL-5 melanoma; 1.62 µM with 786-0 renal; 2.6 µM with UACC-62 melanoma. Besides, the GI50 in the experiment with OVCAR-5 ovarian was 2.08 µM. The TGI was 3.19 µM in the experiment with SW-620 colon; above 100 µM with HCT-15 colon; 32 µM in the experiment on UO-31 renal; 3.26 µM in the experiment with SK-MEL-5 melanoma; 3.23 µM in the experiment with 786-0 renal; 7.33 µM in the experiment on UACC-62 melanoma. Besides, in the experiment with OVCAR-5 ovarian, the TGI turned out to be 5.19 µM.
Take `CCCCCN(CCCCC)C(=O)[C@H](CCC(=O)OCc1ccccc1)NC(=O)c1cc2ccccc2[nH]1`: the TGI with SW-620 colon, in the experiment with HCT-15 colon, with UO-31 renal, in the experiment with SNB-19 CNS, in the experiment with K-562 leukemia and with 786-0 renal was above 100 µM in each case. The TGI with UACC-62 melanoma and in the experiment on OVCAR-5 ovarian was above 100 µM each time.
Turning to `CCC(C)(C)NS(=O)(=O)c1ccccc1`, the TGI in the experiment with SW-620 colon, in the experiment with HCT-15 colon, in the experiment on UO-31 renal, with SK-MEL-5 melanoma, with K-562 leukemia and in the experiment on 786-0 renal was above 100 µM throughout. The TGI in the experiment with UACC-62 melanoma and in the experiment with OVCAR-5 ovarian was above 100 µM throughout.
For the molecule `CSC1SCC2C(=O)N(C)C(C(C)C)C(=O)OCC(NC(=O)c3cnc4ccccc4n3)C(=O)NC(C)C(=O)N(C)C1C(=O)N(C)C(C(C)C)C(=O)OCC(NC(=O)c1cnc3ccccc3n1)C(=O)NC(C)C(=O)N2C` (stereo not given), the GI50 was below 0.001 µM with SW-620 colon; 0.00322 µM in the experiment on HCT-15 colon; 0.00328 µM in the experiment with UO-31 renal; below 0.001 µM in the experiment on SNB-19 CNS; below 0.001 µM in the experiment on K-562 leukemia; below 0.001 µM in the experiment with 786-0 renal. For the same molecule, the GI50 with UACC-62 melanoma and in the experiment with OVCAR-5 ovarian was below 0.001 µM throughout.
Consider `CC1=CC2=C(C#N)C(=O)OC2(C)C(c2ccccc2)C1` (stereo not given), for which the TGI in the experiment on SW-620 colon, with HCT-15 colon, in the experiment on UO-31 renal, in the experiment with SNB-19 CNS, in the experiment with K-562 leukemia and in the experiment with 786-0 renal was above 100 µM in each case. Also, the TGI with UACC-62 melanoma and in the experiment with OVCAR-5 ovarian was above 100 µM throughout.

The record behind these values is PubChem BioAssay (NCI).
